Entries after “also recorded” stand apart in the source; their conditions may differ.

The first experiment concerns biofilm of A. naeslundi. The experiment in a line: Biofilm reduction by photosensitizer plus light. In kind it is cell-based. The note with it: 0.1% photosensitizer in the presence of light. As to the method:
Bacterial biofilms (24 h old) were treated with the photosensitizers or photo-triggered actives described in the tables below at a concentration less than their minimum inhibitory concentration (MIC). The actives were either pre-incubated before light exposure for 2 s to 15 min, typically less than 2 min, or administered at the same time the biofilm was exposed to the light. The bacteria were irradiated at a set wavelength for 2 s to 15 min (typically less than 2 min) at an energy dose between 1-450 J/cm^2. Optical power densities typically ranged from 1-500 mW/cm^2. Light was either pulsed or provided in one continuous light exposure. Pulsed light treatments were preferred for high optical energy treatments.
On a biofilm of A. naeslundi, the impact of four “photosensitizers” (0.1% concentration) in the presence of light was evaluated. MIC typically ranged from 0.0001% (w/v) to 1% (w/v). The percent biofilm reduction is tabulated below.
As to `COc1cc(S(=O)(=O)[O-])c(C)cc1N=Nc1c(O)ccc2cc(S(=O)(=O)[O-])ccc12.[Na+].[Na+]` [Allura Red, Allura Red AC], the “Biofilm reduction compared to light alone (in words)” value (“Biofilm reduction” below) is “increased biofilm reduction compared to light alone”.

Take `CCN(Cc1cccc(S(=O)(=O)[O-])c1)c1ccc(C(=C2C=CC(=[N+](CC)Cc3cccc(S(=O)(=O)[O-])c3)C=C2)c2ccc(O)cc2S(=O)(=O)[O-])cc1.[Na+].[Na+]` [Fast Green, Fast Green FCF]: the “Biofilm reduction” value was “increased biofilm reduction compared to light alone”.

In the case of `CN(C)c1ccc(C(=C2C=CC(=[N+](C)C)C=C2)c2c(O)c(S(=O)(=O)[O-])cc3cc(S(=O)(=O)[O-])ccc23)cc1.[Na+]` [Lissamine Green B], the “Biofilm reduction” value is given as “increased biofilm reduction compared to light alone”.

`Cc1cc2nc3c(=O)[nH]c(=O)nc-3n(C[C@H](O)[C@H](O)[C@H](O)CO)c2cc1C` [Riboflavin]: the “Biofilm reduction” value is “increased biofilm reduction compared to light alone”.

As to `O=C([O-])C1=NN(c2ccc(S(=O)(=O)[O-])cc2)C(=O)C1N=Nc1ccc(S(=O)(=O)[O-])cc1.[Na+].[Na+].[Na+]` (stereo not drawn) [Tartrazine], the “Biofilm reduction” value is “increased biofilm reduction compared to light alone”.

A further experiment deals with TNFα of HEPM cells stimulated by IL-1β. The experiment in a line: Cytokine (TNFα) concentration in IL-1β stimulated cell culture after light plus dye. In kind it is cell-based, human. The note with it: Fast Green at 1000 ppm combined with light at 625 nm for 2 minutes, 9 mW/cm^2, 1.1 J/cm^2. As to the method:
Cells used in this example include human embryonic palatal mesenchymal (HEPM) cells and oral keratinocytes OBA9 cells. The embodiments also can be used with other cells such as human gingival fibroblasts (HGF). Cells were seeded in 24-well plates and cultured until reaching a confluence above 80%. The confluent-stage cells were treated with stimulants such as IL-1β followed by light irradiation alone, or light irradiation combined with GRAS photosensitizing dye. The cells were either pre-incubated in photosensitizing dye before light exposure, or administered at the same time of light exposure. The cells were incubated in photosensitizing dyes for varied amounts of time, the concentration of photosensitizing dyes were varied, and the cell were irradiated with light for varied amounts of time per exposure, as well as irradiation either one time or multiple times, as described below. After irradiation, the cells were incubated at 37° C. The cell culture media was collected after a certain amount of time for cytokine analysis.
The results tabulated below reveal that visible light (various wavelength, 380-700 nm) alone and photosensitizing dye irradiated with visible light (various wavelength, 380-700 nm) have anti-inflammation effect. […]
With `CCN(Cc1cccc(S(=O)(=O)[O-])c1)c1ccc(C(=C2C=CC(=[N+](CC)Cc3cccc(S(=O)(=O)[O-])c3)C=C2)c2ccc(O)cc2S(=O)(=O)[O-])cc1.[Na+].[Na+]` [Fast Green, Fast Green FCF], the “Effect on TNFα concentration (in words)” value was “can decrease pro-inflammation cytokine TNFα concentration; also recorded: can reduce concentration of TNFα”.

(Values after patent US20120270183A1, “METHOD OF TREATING AND/OR PREVENTING CONDITIONS CAUSED BY MICROORGANISMS USING AN ORAL LIGHT DEVICE” (COLGATE-PALMOLIVE COMPANY, priority 2009, published 2012).)
